Test results as given in patent publication US20260201008A1, “SECRETIN-DERIVED GLP1R SELECTIVE AGONISTS” (GUBRA A/S, priority 2023, published 2026).
Read-outs that look alike come from different tables or passages of the source. Numbered stars: 1 amine (or outer) side, 2 acyl side, 3 side chain; on linkers, the order of the positions; unused ones are H or OH. Square brackets hold non-standard residues; d marks the D form. Side chains are listed from the residue outwards. Peptide text beside a SMILES is read from it. * marks the point of attachment. C20 diacid = O=C(O)CCCCCCCCCCCCCCCCCCC(=O)*; γGlu = O=C(O)[C@H](CCC(=O)[*:2])N[*:1]; AEEA = NCCOCCOCC(=O)O; Aib = CC(C)(N)C(=O)O

Legend:
[1] = Turbidity of crude library peptides (absorbance at 600 nm); assay type: physicochemical; conditions: Physical stability of peptides
Outline: (§1)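 Turbidity is the absorbance at 600 nm, taken before heating. Fibril signal is the mean ThT emission at 480 nm (450 nm excitation), read every 10 min over 72 h at 40° C with 700 rpm shaking between reads. Peptides at 267 μM, pH 4.0 acetate or pH 7.0 phosphate buffer (50 mM), 4 μM ThT final.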

SCTR = SCTR (Homo sapiens, UniProt P47872); test: hSCTR potency, cAMP accumulation in CHO-K1 cells stably overexpressing hSCTR; assay type: cell-based; design: alternatively Euroscreen ES-712-AF; FAST-0161L; host or cells: CHO-K1; conditions: cAMP accumulation
SCTR, sequence (P47872 23-440): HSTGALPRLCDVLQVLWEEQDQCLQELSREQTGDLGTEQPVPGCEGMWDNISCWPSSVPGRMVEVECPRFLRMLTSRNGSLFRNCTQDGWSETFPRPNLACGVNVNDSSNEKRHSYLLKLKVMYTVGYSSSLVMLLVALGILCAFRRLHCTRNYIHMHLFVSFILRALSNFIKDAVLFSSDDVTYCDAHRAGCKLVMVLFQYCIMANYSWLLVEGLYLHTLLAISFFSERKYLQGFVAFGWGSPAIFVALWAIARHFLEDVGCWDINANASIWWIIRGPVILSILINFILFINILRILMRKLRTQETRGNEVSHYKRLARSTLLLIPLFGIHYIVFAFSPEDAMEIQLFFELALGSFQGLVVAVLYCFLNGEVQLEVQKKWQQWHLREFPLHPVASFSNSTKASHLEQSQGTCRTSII
Outline: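 Thawed CHO-K1 cells carrying stable hSCTR are plated into casein/IBMX buffer (0.05%, 0.5 mM), dosed immediately for 30 min at room temperature, then cAMP is detected by TR-FRET. Purified peptides run as 11 three-fold dilutions in duplicate, and curves are fitted with variable slope.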

[2] = Fibril formation of crude library peptides (Thioflavin T); assay type: physicochemical; design: key: average ThT fluorescence emission at 480 nm (ex 450 nm), raw units; conditions: Physical stability of peptides
Outline: as §1

GLP1R = GLP1R (Homo sapiens, UniProt P43220); test: hGLP1R potency, cAMP accumulation in CHO-K1 cells stably overexpressing hGLP1R; assay type: cell-based; design: host or cells: CHO-K1; conditions: for EC50: cAMP accumulation; for SCTR EC50/GLP1R EC50 ratio: cAMP accumulation in CHO-K1 cells; for Selectivity: SCTR EC50/GLP1R EC50 ratio
GLP1R, sequence (P43220 24-463): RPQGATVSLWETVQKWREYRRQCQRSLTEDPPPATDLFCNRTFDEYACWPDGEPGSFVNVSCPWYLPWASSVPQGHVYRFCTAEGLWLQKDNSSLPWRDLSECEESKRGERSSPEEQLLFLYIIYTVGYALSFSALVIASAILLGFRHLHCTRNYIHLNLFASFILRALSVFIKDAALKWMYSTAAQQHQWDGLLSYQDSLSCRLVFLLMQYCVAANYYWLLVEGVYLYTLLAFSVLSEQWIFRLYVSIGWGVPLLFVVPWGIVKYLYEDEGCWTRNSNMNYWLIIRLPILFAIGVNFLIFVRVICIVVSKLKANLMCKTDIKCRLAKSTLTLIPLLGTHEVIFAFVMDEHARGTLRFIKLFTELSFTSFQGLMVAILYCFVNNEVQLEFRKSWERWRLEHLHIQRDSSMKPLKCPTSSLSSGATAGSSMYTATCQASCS
Outline: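 2000 cells/well, DPBS + 0.05% casein + 0.5 mM IBMX; 30 min RT stimulation; HTRF cAMP detection after 1 h. Purified: 3-fold ×11, n=2; crude: 10-fold ×5, n=1. EC50 by variable-slope fit.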

[3] = CHO-K1 cells stably overexpressing hSCTR, read-out: hSCTR potency (pEC50) (converted)
[4] = CHO-K1 cells stably overexpressing hGLP1R, read-out: hGLP1R potency (pEC50) (converted)
[5] = selectivity ratio, hSCTR vs hGLP1R
[6] = CHO-K1 cells overexpressing hSCTR, read-out: hSCTR pEC50 (converted)
[7] = CHO-K1 cells overexpressing hGLP1R, read-out: hGLP1R pEC50 (converted)
[8] = selectivity for hGLP1R over hSCTR
[9] = CHO-K1 cells overexpressing hSCTR, read-out: pEC50 hSCTR (converted)
[10] = CHO-K1 cells overexpressing hGLP1R, read-out: pEC50 hGLPR1 (converted)

SMILES	Turbidity (pH 7) [1]	EC50 (SCTR; [3]) [nM]	Fibril formation [2]	EC50 (GLP1R; [4]) [nM]	SCTR EC50/GLP1R EC50 ratio (GLP1R; [5])	EC50 (SCTR; [6]) [nM]	EC50 (GLP1R; [7]) [nM]	SCTR EC50/GLP1R EC50 ratio (GLP1R; [8])	EC50 (SCTR; [9]) [nM]	Selectivity (GLP1R)	EC50 (GLP1R; [10]) [nM]
CC[C@H](C)[C@H](NC(=O)[C@H](Cc1ccccc1)NC(=O)[C@H](CCCNC(=N)N)NC(=O)[C@H](CCC(N)=O)NC(=O)[C@H](CC(C)C)NC(=O)[C@H](C)NC(=O)[C@H](C)NC(=O)CNC(=O)[C@H](CCC(=O)O)NC(=O)[C@H](CC(C)C)NC(=O)[C@H](CC(C)C)NC(=O)[C@H](CCCNC(=N)N)NC(=O)[C@H](CO)NC(=O)[C@H](Cc1ccc(O)cc1)NC(=O)[C@H](CC(=O)O)NC(=O)[C@H](CO)NC(=O)[C@@H](NC(=O)[C@H](Cc1ccccc1)NC(=O)[C@@H](NC(=O)CNC(=O)[C@H](CCC(=O)O)NC(=O)C(C)(C)NC(=O)[C@@H](N)Cc1c[nH]cn1)[C@@H](C)O)[C@@H](C)O)C(=O)N[C@@H](CCC(N)=O)C(=O)N[C@@H](Cc1c[nH]c2ccccc12)C(=O)N[C@@H](CC(C)C)C(=O)N[C@H](C(N)=O)C(C)C [compound 194] (H-H[Aib]EGTFTSDYSRLLEGAALQRFIQWLV-NH2)	0.27	1.58	8355	0.0126	114	–	–	–	–	–	–
CC[C@H](C)[C@H](NC(=O)[C@H](Cc1ccccc1)NC(=O)[C@H](CCCNC(=N)N)NC(=O)[C@H](CCC(N)=O)NC(=O)[C@H](CC(C)C)NC(=O)[C@H](C)NC(=O)[C@H](C)NC(=O)CNC(=O)[C@H](CCC(=O)O)NC(=O)[C@H](CC(C)C)NC(=O)[C@H](CC(C)C)NC(=O)[C@H](Cc1c[nH]c2ccccc12)NC(=O)[C@H](CO)NC(=O)[C@@H]1CCCN1C(=O)[C@H](CC(=O)O)NC(=O)[C@H](CO)NC(=O)[C@@H](NC(=O)[C@H](Cc1ccccc1)NC(=O)[C@@H](NC(=O)CNC(=O)[C@H](CCC(=O)O)NC(=O)C(C)(C)NC(=O)[C@@H](N)Cc1c[nH]cn1)[C@@H](C)O)[C@@H](C)O)C(=O)N[C@@H](CCC(N)=O)C(=O)N[C@@H](Cc1c[nH]c2ccccc12)C(=O)N[C@@H](CC(C)C)C(=O)N[C@H](C(N)=O)C(C)C [compound 127] (H-H[Aib]EGTFTSDPSWLLEGAALQRFIQWLV-NH2)	0.19	–	11084	–	–	3980	7.94	464	–	–	–
CC(C)C[C@H](NC(=O)[C@H](Cc1ccccc1)NC(=O)[C@H](CCCNC(=N)N)NC(=O)[C@H](CCC(N)=O)NC(=O)[C@H](CC(C)C)NC(=O)C(C)(C)NC(=O)[C@H](C)NC(=O)[C@H](CCC(=O)O)NC(=O)[C@H](CCC(=O)O)NC(=O)[C@H](Cc1c[nH]c2ccccc12)NC(=O)[C@H](CC(C)C)NC(=O)[C@H](Cc1ccc(O)cc1)NC(=O)[C@H](CO)NC(=O)[C@@H](NC(=O)[C@H](CC(=O)O)NC(=O)[C@H](CO)NC(=O)[C@@H](NC(=O)[C@H](Cc1ccccc1)NC(=O)[C@@H](NC(=O)CNC(=O)[C@H](CCC(=O)O)NC(=O)C(C)(C)NC(=O)[C@@H](N)Cc1c[nH]cn1)[C@@H](C)O)[C@@H](C)O)C(C)C)C(=O)N[C@@H](CCC(=O)O)C(=O)N[C@@H](CCCCNC(=O)COCCOCCNC(=O)COCCOCCNC(=O)CC[C@H](NC(=O)CCCCCCCCCCCCCCCCCCC(=O)O)C(=O)O)C(=O)N[C@@H](CC(C)C)C(=O)N[C@H](C(N)=O)C(C)C [compound 130] (H-H[Aib]EGTFTSDVSYLWEEA[Aib]LQRFLEK([AEEA-AEEA-γGlu-C20 diacid])LV-NH2)	0.08	–	4181	–	–	1000	0.0316	34990	–	–	–
CC[C@H](C)[C@H](NC(=O)[C@H](Cc1ccccc1)NC(=O)[C@H](CCCNC(=N)N)NC(=O)[C@H](CCC(N)=O)NC(=O)[C@H](CC(C)C)NC(=O)[C@H](C)NC(=O)[C@H](C)NC(=O)CNC(=O)[C@H](CCC(=O)O)NC(=O)[C@H](CC(C)C)NC(=O)[C@H](CC(C)C)NC(=O)[C@@H](NC(=O)[C@H](CO)NC(=O)[C@H](Cc1c[nH]c2ccccc12)NC(=O)[C@H](CC(=O)O)NC(=O)[C@H](CO)NC(=O)[C@@H](NC(=O)[C@H](Cc1ccccc1)NC(=O)[C@@H](NC(=O)CNC(=O)[C@H](CCC(=O)O)NC(=O)C(C)(C)NC(=O)[C@@H](N)Cc1c[nH]cn1)[C@@H](C)O)[C@@H](C)O)C(C)C)C(=O)N[C@@H](CCC(N)=O)C(=O)N[C@@H](Cc1c[nH]c2ccccc12)C(=O)N[C@@H](CC(C)C)C(=O)N[C@H](C(N)=O)C(C)C [compound 188] (H-H[Aib]EGTFTSDWSVLLEGAALQRFIQWLV-NH2)	0.85	31.6	260000	0.0794	468	–	–	–	–	–	–

The remaining lines, values ahead:

Turbidity (pH 7) [1]	EC50 (SCTR; [3]) [nM]	Fibril formation [2]	EC50 (GLP1R; [4]) [nM]	SCTR EC50/GLP1R EC50 ratio (GLP1R; [5])	EC50 (SCTR; [6]) [nM]	EC50 (GLP1R; [7]) [nM]	SCTR EC50/GLP1R EC50 ratio (GLP1R; [8])	EC50 (SCTR; [9]) [nM]	Selectivity (GLP1R)	EC50 (GLP1R; [10]) [nM]	SMILES
0.08	–	45087	–	–	–	–	–	316	5737	0.0631	CC(C)C[C@H](NC(=O)[C@H](CCC(=O)O)NC(=O)[C@H](CCCCNC(=O)COCCOCCNC(=O)COCCOCCNC(=O)CC[C@H](NC(=O)CCCCCCCCCCCCCCCCCCC(=O)O)C(=O)O)NC(=O)[C@H](CC(C)C)NC(=O)[C@@H](NC(=O)[C@H](CO)NC(=O)[C@@H](NC(=O)[C@H](CC(=O)O)NC(=O)[C@H](CO)NC(=O)[C@@H](NC(=O)[C@H](Cc1ccccc1)NC(=O)[C@@H](NC(=O)CNC(=O)[C@H](CCC(=O)O)NC(=O)C(C)(C)NC(=O)[C@@H](N)Cc1c[nH]cn1)[C@@H](C)O)[C@@H](C)O)C(C)C)C(C)C)C(=O)N[C@@H](C)C(=O)N[C@@H](C)C(=O)N[C@@H](CCC(N)=O)C(=O)N[C@@H](CCC(N)=O)C(=O)N[C@@H](CCCNC(=N)N)C(=O)N[C@@H](Cc1ccccc1)C(=O)N[C@@H](CC(C)C)C(=O)N[C@@H](CCC(=O)O)C(=O)N[C@@H](Cc1c[nH]cn1)C(=O)N[C@@H](CC(C)C)C(=O)N[C@H](C(N)=O)C(C)C [compound 33] (H-H[Aib]EGTFTSDVSVLK([AEEA-AEEA-γGlu-C20 diacid])ELAAQQRFLEHLV-NH2)
0.09	–	12284	–	–	–	–	–	50.1	3425	0.0158	CC(C)C[C@H](NC(=O)[C@H](Cc1ccccc1)NC(=O)[C@H](CCCNC(=N)N)NC(=O)[C@H](CCC(N)=O)NC(=O)[C@@H](NC(=O)[C@H](C)NC(=O)[C@H](C)NC(=O)C(C)(C)NC(=O)[C@H](CCC(=O)O)NC(=O)[C@H](CCCCNC(=O)COCCOCCNC(=O)COCCOCCNC(=O)CC[C@H](NC(=O)CCCCCCCCCCCCCCCCCCC(=O)O)C(=O)O)NC(=O)[C@H](CC(C)C)NC(=O)[C@H](CCCNC(=N)N)NC(=O)[C@H](CO)NC(=O)[C@@H](NC(=O)[C@H](CC(=O)O)NC(=O)[C@H](CO)NC(=O)[C@@H](NC(=O)[C@H](Cc1ccccc1)NC(=O)[C@@H](NC(=O)CNC(=O)[C@H](CCC(=O)O)NC(=O)C(C)(C)NC(=O)[C@@H](N)Cc1c[nH]cn1)[C@@H](C)O)[C@@H](C)O)C(C)C)[C@@H](C)O)C(=O)N[C@@H](CCC(=O)O)C(=O)N[C@@H](Cc1c[nH]cn1)C(=O)N[C@@H](CC(C)C)C(=O)N[C@H](C(N)=O)C(C)C [compound 50] (H-H[Aib]EGTFTSDVSRLK([AEEA-AEEA-γGlu-C20 diacid])E[Aib]AATQRFLEHLV-NH2)
0.08	–	8549	–	–	–	–	–	100	11264	0.01	CC(C)C[C@H](NC(=O)[C@H](Cc1ccccc1)NC(=O)[C@H](CCCNC(=N)N)NC(=O)[C@H](CCC(N)=O)NC(=O)[C@@H](NC(=O)[C@H](C)NC(=O)[C@H](C)NC(=O)C(C)(C)NC(=O)[C@H](CCC(=O)O)NC(=O)[C@H](CCCCNC(=O)COCCOCCNC(=O)COCCOCCNC(=O)CC[C@H](NC(=O)CCCCCCCCCCCCCCCCCCC(=O)O)C(=O)O)NC(=O)[C@H](CC(C)C)NC(=O)[C@H](CCC(=O)O)NC(=O)[C@H](CO)NC(=O)[C@@H](NC(=O)[C@H](CC(=O)O)NC(=O)[C@H](CO)NC(=O)[C@@H](NC(=O)[C@H](Cc1ccccc1)NC(=O)[C@@H](NC(=O)CNC(=O)[C@H](CCC(=O)O)NC(=O)C(C)(C)NC(=O)[C@@H](N)Cc1c[nH]cn1)[C@@H](C)O)[C@@H](C)O)C(C)C)[C@@H](C)O)C(=O)N[C@@H](CCC(=O)O)C(=O)N[C@@H](Cc1c[nH]cn1)C(=O)N[C@@H](CC(C)C)C(=O)N[C@H](C(N)=O)C(C)C [compound 82] (H-H[Aib]EGTFTSDVSELK([AEEA-AEEA-γGlu-C20 diacid])E[Aib]AATQRFLEHLV-NH2)
